Assay results published in the supplement of paper PMC11208160.

experiment: recombinant barcode read abundance after kanamycin selection (control-corrected) (log10(CPM+1)); higher = more efficient recombination; sequences stand for … in AGTGCAGAGAAAATCGGCCAGTTTTCTCTGCCTGCAGTCCGCATGCCGT…AGATTTATGCAGCGGACTGCCTTTCTCCCAAAGTGATAAACCGGACAGTATCATGGACCGGTTTTCCCGGTAATCCGTATTTGCAAGGTTGGTTTCACT; site = the 11-nt target
Outline: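 Values are log10(CPM+1) from a pooled E. coli screen of targets paired with IS621 bridge RNA target-binding loops. Recombination efficiency here means counts per million of recombinant-junction barcodes, averaged and control-corrected. Plates were chloramphenicol/ampicillin LB agar for the control and chloramphenicol/ampicillin/kanamycin with 0.1 mM IPTG, two replicates each.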
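Further: IS621 recombinase and bridge RNA in Escherichia coli cells.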

First: GAAATGACTTGGGTTCTAACCTGTTGCCT (site GAAATGACTAG)
Second: GAAATGACTTGGGTTCTAACCTGTTGCCT (site GCAATGACTAG)
The “recombinant barcode read abundance (log10)” value of the first is higher: 0.908 for the first, 0.152 for the second.

“GAAATGACTTGGGTTCTAACCTGTTGCCT (site GGAATGACTAG)” and “GAAATGACTTGGGTTCTAACCTGTTGCCT (site GTAATGACTAG)” are within 0.2 log units of each other in “recombinant barcode read abundance (log10)” value: 0.066 for the first, 0.202 for the second.

Compared with “GAACCTTCTTGGGTTCTAACCTGTTGCGG (site GAACCTTCTCC)”, “GAACCTTCTTGGGTTCTAACCTGTTGCGG (site TTCTACACTAT)” is lower in “recombinant barcode read abundance (log10)” value: 0.93 for the first, 0.0281 for the second.

Compared with “GAACGACCTTGGGTTCTAACCTGTTGCCT (site AAACGACCTAG)”, “GAACGACCTTGGGTTCTAACCTGTTGCCT (site CAACGACCTAG)” is lower in “recombinant barcode read abundance (log10)” value: 0.331 for the first, 0.0122 for the second.

First: GAACGACCTTGGGTTCTAACCTGTTGCCT (site GAACGACCTAG)
Second: GAACGACCTTGGGTTCTAACCTGTTGCCT (site TAACGACCTAG)
The “recombinant barcode read abundance (log10)” value of the first is higher: 0.721 for the first, 0.144 for the second.

First: GAACTCCCTTGGGTTCTAACCTGTTGCGG (site GAACTCCCTCC)
Second: GAACTCCCTTGGGTTCTAACCTGTTGCGG (site TGTTGGTCTAA)
The “recombinant barcode read abundance (log10)” value of the first is higher: 0.758 for the first, 0.0984 for the second.

First: GAACTCTCTTGGGTTCTAACCTGTTGCTA (site CCTAAAACTAG)
Second: GAACTCTCTTGGGTTCTAACCTGTTGCTA (site GAACTCTCTTA)
The “recombinant barcode read abundance (log10)” value of the first is lower: 0.0469 for the first, 1.66 for the second.

First: GAACTGTCTTGGGTTCTAACCTGTTGCCA (site GAACTGTCTTG)
Second: GAACTGTCTTGGGTTCTAACCTGTTGCCA (site GTACTCTCTTG)
The “recombinant barcode read abundance (log10)” value of the first is higher: 0.995 for the first, 0.0913 for the second.

Going from “GAAGAGCCTTGGGTTCTAACCTGTTGCCT (site GAAGAGCCTAG)” to “GAAGAGCCTTGGGTTCTAACCTGTTGCCT (site GAAGCGCCTAG)”, the “recombinant barcode read abundance (log10)” value falls from 2.62 to 0.189.

“GAAGAGCCTTGGGTTCTAACCTGTTGCCT (site GAAGGGCCTAG)” and “GAAGAGCCTTGGGTTCTAACCTGTTGCCT (site GAAGTGCCTAG)” are within 0.2 log units of each other in “recombinant barcode read abundance (log10)” value: 0.0404 for the first, 0.0759 for the second.

First: GAAGAGGCTTGGGTTCTAACCTGTTGCCA (site GAAGAGGCTTG)
Second: GAAGAGGCTTGGGTTCTAACCTGTTGCCA (site TGTCTCCCTAC)
The “recombinant barcode read abundance (log10)” value of the first is higher: 0.536 for the first, 0.115 for the second.

First: GAAGCCGCTTGGGTTCTAACCTGTTGCCT (site GAAGACGCTAG)
Second: GAAGCCGCTTGGGTTCTAACCTGTTGCCT (site GAAGCCGCTAG)
The “recombinant barcode read abundance (log10)” value of the first is lower: 0.0292 for the first, 2.26 for the second.

“GAAGCCGCTTGGGTTCTAACCTGTTGCCT (site GAAGGCGCTAG)” and “GAAGCCGCTTGGGTTCTAACCTGTTGCCT (site GAAGTCGCTAG)” are within 0.2 log units of each other in “recombinant barcode read abundance (log10)” value: 0.16 for the first, 0.302 for the second.

First: GAAGGAGCTTGGGTTCTAACCTGTTGCAG (site ATGCCTCCTAA)
Second: GAAGGAGCTTGGGTTCTAACCTGTTGCAG (site GAAGGAGCTCT)
The “recombinant barcode read abundance (log10)” value of the first is lower: 0.0306 for the first, 1.51 for the second.

Compared with “GAAGGGACTTGGGTTCTAACCTGTTGCCT (site GAAGGGACTAG)”, “GAAGGGACTTGGGTTCTAACCTGTTGCCT (site GCAGGGACTAG)” is lower in “recombinant barcode read abundance (log10)” value: 2.11 for the first, 0.236 for the second.

Going from “GAAGGGACTTGGGTTCTAACCTGTTGCCT (site GGAGGGACTAG)” to “GAAGGGACTTGGGTTCTAACCTGTTGCCT (site GTAGGGACTAG)”, the “recombinant barcode read abundance (log10)” value rises from 0.585 to 1.52.

Compared with “GAAGTCGCTTGGGTTCTAACCTGTTGCCT (site GAAGACGCTAG)”, “GAAGTCGCTTGGGTTCTAACCTGTTGCCT (site GAAGCCGCTAG)” is higher in “recombinant barcode read abundance (log10)” value: 0.187 for the first, 0.508 for the second.

Going from “GAAGTCGCTTGGGTTCTAACCTGTTGCCT (site GAAGGCGCTAG)” to “GAAGTCGCTTGGGTTCTAACCTGTTGCCT (site GAAGTCGCTAG)”, the “recombinant barcode read abundance (log10)” value rises from 0 to 1.78.

Compared with “GAATATTCTTGGGTTCTAACCTGTTGCCT (site GAATATTCTAG)”, “GAATATTCTTGGGTTCTAACCTGTTGCCT (site GACTATTCTAG)” is lower in “recombinant barcode read abundance (log10)” value: 0.739 for the first, 0.0547 for the second.

“GAATATTCTTGGGTTCTAACCTGTTGCCT (site GAGTATTCTAG)” and “GAATATTCTTGGGTTCTAACCTGTTGCCT (site GATTATTCTAG)” are within 0.2 log units of each other in “recombinant barcode read abundance (log10)” value: 0.136 for the first, 0.27 for the second.

Going from “GAATGTCCTTGGGTTCTAACCTGTTGCAT (site GAATGTCCTAT)” to “GAATGTCCTTGGGTTCTAACCTGTTGCAT (site GCATGTCCTAT)”, the “recombinant barcode read abundance (log10)” value falls from 1.39 to 0.0491.

“GACAATGCTTGGGTTCTAACCTGTTGCAT (site ACGTGGACTTA)” and “GACAATGCTTGGGTTCTAACCTGTTGCAT (site GACAATGCTAT)” are within 0.2 log units of each other in “recombinant barcode read abundance (log10)” value: 0.229 for the first, 0.105 for the second.

“GACACAACTTGGGTTCTAACCTGTTGCCA (site CGGCTCCCTAA)” and “GACACAACTTGGGTTCTAACCTGTTGCCA (site GACACAACTTG)” are within 0.2 log units of each other in “recombinant barcode read abundance (log10)” value: 0.208 for the first, 0.018 for the second.

First: GACACGCCTTGGGTTCTAACCTGTTGCCT (site GACACGCCTAA)
Second: GACACGCCTTGGGTTCTAACCTGTTGCCT (site GACACGCCTAC)
The “recombinant barcode read abundance (log10)” value of the first is higher: 0.301 for the first, 0.0669 for the second.

“GACACGCCTTGGGTTCTAACCTGTTGCCT (site GACACGCCTAG)” and “GACACGCCTTGGGTTCTAACCTGTTGCCT (site GACACGCCTAT)” are within 0.2 log units of each other in “recombinant barcode read abundance (log10)” value: 0.156 for the first, 0.146 for the second.

Compared with “GACACGCCTTGGGTTCTAACCTGTTGCGT (site GACACGCCTAA)”, “GACACGCCTTGGGTTCTAACCTGTTGCGT (site GACACGCCTAC)” is higher in “recombinant barcode read abundance (log10)” value: 0.205 for the first, 0.571 for the second.

“GACACGCCTTGGGTTCTAACCTGTTGCGT (site GACACGCCTAG)” and “GACACGCCTTGGGTTCTAACCTGTTGCGT (site GACACGCCTAT)” are within 0.2 log units of each other in “recombinant barcode read abundance (log10)” value: 0.156 for the first, 0.147 for the second.

Going from “GACACGTCTTGGGTTCTAACCTGTTGCCT (site GACACCTCTAA)” to “GACACGTCTTGGGTTCTAACCTGTTGCCT (site GACACGTCTAG)”, the “recombinant barcode read abundance (log10)” value rises from 0 to 0.534.

First: GACAGGACTTGGGTTCTAACCTGTTGCCT (site AACACGACTAG)
Second: GACAGGACTTGGGTTCTAACCTGTTGCCT (site GACAGGACTAG)
The “recombinant barcode read abundance (log10)” value of the first is lower: 0.196 for the first, 1.32 for the second.

First: GACATCACTTGGGTTCTAACCTGTTGCCT (site GACATCACTAG)
Second: GACATCACTTGGGTTCTAACCTGTTGCCT (site GACATCCCTAG)
The “recombinant barcode read abundance (log10)” value of the first is higher: 0.767 for the first, 0.0352 for the second.

“GACATCACTTGGGTTCTAACCTGTTGCCT (site GACATCGCTAG)” and “GACATCACTTGGGTTCTAACCTGTTGCCT (site GACATCTCTAG)” are within 0.2 log units of each other in “recombinant barcode read abundance (log10)” value: 0.192 for the first, 0.0671 for the second.

Going from “GACATCCCTTGGGTTCTAACCTGTTGCCT (site GACATCACTAG)” to “GACATCCCTTGGGTTCTAACCTGTTGCCT (site GACATCCCTAG)”, the “recombinant barcode read abundance (log10)” value rises from 0.045 to 1.45.

“GACATCCCTTGGGTTCTAACCTGTTGCCT (site GACATCGCTAG)” and “GACATCCCTTGGGTTCTAACCTGTTGCCT (site GACATCTCTAG)” are within 0.2 log units of each other in “recombinant barcode read abundance (log10)” value: 0.0465 for the first, 0.142 for the second.
